Calls of active or inactive are those of the source. No rule for the calls is given here.
Test system: V. cholerae SLS353 luxOD47E qrr4-GFP fluorescence
Test: Quorum LuxO inhibitors, V. cholerae SLS353 luxOD47E qrr4 GFP fluorescence, confirmatory dose response (AID 652219)

**Q.** O=C(Nc1nnc(-c2ccc3c(c2)OCCO3)o1)C1CCCCC1 was tested. Which AC50 did it give?
**A.** 2 µM

**Q.** CCn1nnnc1NCc1ccc(N2CCCC2)cc1 was tested. Which AC50 did it give?
**A.** > 500 µM (inactive)

**Q.** How did the AC50 turn out when O=C(Cc1ccc(-c2ccccc2)cc1)NC1CCCC1 was run?
**A.** > 500 µM (inactive)

**Q.** How did the AC50 turn out when O=c1ncn(-c2cccc(Cl)c2)c2ccccc12 was run?
**A.** 250 µM

**Q.** With Cc1ccc2cc3c(NC(=O)c4ccco4)nn(C)c3nc2c1 as the molecule, how does the AC50 read?
**A.** 4 µM

**Q.** COc1ccccc1NC(=O)COC(=O)c1cc2c(s1)CCC2 was tested. Which AC50 did it give?
**A.** > 500 µM (inactive)

**Q.** COc1ccc(Cl)cc1NC(=O)COC(=O)c1ccc(C)o1 was tested. Which AC50 did it give?
**A.** > 500 µM (inactive)

**Q.** How did the AC50 turn out when COc1ccccc1NC(=O)COC(=O)c1oc2ccccc2c1C was run?
**A.** > 500 µM (inactive)

**Q.** Cc1ccc(OCCNC(=O)c2cccc(C)c2)cc1 was tested. Which AC50 did it give?
**A.** 100 µM (inactive)

**Q.** With COc1ccccc1NC(=O)COC(=O)c1ccc(C)cc1 as the molecule, how does the AC50 read?
**A.** > 500 µM (inactive)

**Q.** For CCOc1ccc(Nc2ccc3nonc3c2[N+](=O)[O-])cc1, which AC50 is on record?
**A.** > 500 µM (inactive)

**Q.** For CCCn1nnnc1NCc1ccc(N2CCCC2)cc1, which AC50 is on record?
**A.** > 500 µM (inactive)

**Q.** With CCCn1nnnc1NCc1ccc(C(C)C)cc1 as the molecule, how does the AC50 read?
**A.** > 500 µM (inactive)

**Q.** CCC(C)NC(=O)Cc1ccc(-c2ccccc2)cc1 (stereo not given) was tested. Which AC50 did it give?
**A.** > 500 µM (inactive)

**Q.** CCCn1nnnc1NCc1ccc(N(CC)CC)cc1 was tested. Which AC50 did it give?
**A.** > 500 µM (inactive)

From PubChem BioAssay AID652219 (Broad Institute, 2013)
